What all share (type): biochemical
One test has as its target T1, EGFR (Homo sapiens, UniProt P00533).
T1 construct: The intracellular portion of EGFR started at nucleotide 2189 (corresponding to amino acid 667) and ended at the termination codon; made in house; host or cells: Sf9 insect cells (baculovirus)
Description: EGFR Kinase Assay. Particulars: for IC50: GST-EGFR, ATP 5 μM; for inhibition at 2 µM: test concentration of 2 μM, compounds without an IC50, read-out: EGFR inhibition in percent. An outline of the steps: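 Potency came from triplicate 16-point half-log titrations starting at 200 uM, with IC50 fitted from % inhibition against log concentration, or % inhibition at 2 μM otherwise. Reaction: Sf9-made GST–EGFR cytoplasmic region (aa 667 onward), biotin-polyGluTyr, 5 μM ATP with 33P tracer, pH 8.0 Tris/Mg/vanadate/DTT, 30 °C for 1 h; captured on streptavidin Flashplates and counted.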

Another test deals with T2, c-Src kinase (human) (Homo sapiens, UniProt P12931).
T2 construct: purchased Upstate Biotechnology, Lake Placid, N.Y
Description: c-Src Kinase Assay. To be noted: test concentration of 2 μM; multiple values are separate assay results. An outline of the steps:
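Inhibition was read as 33P incorporation, counted on P30 filtermats, after a 40 min, 30° C reaction. Human c-Src acted on 100 μM Cdc2 peptide with 5 μM ATP (final), pH 7.0 MOPS/MgCl2. Values are percent inhibition at 2 μM compound, or IC50 where determined.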

In a further test the target is T3, Lyn kinase (human) (Homo sapiens, UniProt P07948).
T3 construct: purchased Upstate Biotechnology, Lake Placid, N.Y
Description: Lyn Kinase Assay. To be noted: test concentration of 2 μM. On the procedure: A mixture of a 10× kinase buffer (500 mM MOPS at pH 7.5, 1 mM EGTA, 1 mM Sodium Vanadate, 1% β-mercaptoethanol and 100 mM Magnesium Acetate), ATP (5 μM final from a 10 mM stock), polyGluTyr (0.1 mg/mL final from a 1 mg/mL stock), γ-^33P ATP (10 μCl/μL stock) and water (for a total of 20 μL/well) was added to each well of a Streptavidin Flashplate.
Test compound in 100% DMSO (0.5 μL) was added to the appropriate wells. Diluted Lyn kinase (human)(Accession Number EMBL M16038) (Upstate Biotechnology, Lake Placid, N.Y.) (diluted in a buffer consisting of 50 mM Tris at pH 7.5, 0.1 mM EGTA, Sodium Vanadate (0.1 mM), β-mercaptoethanol (0.1%) and 1 mg/mL bovine serum albumin) (2.5 μL) was added to the wells to initiate the reactions.
The reaction plates were incubated at 30° C. for 40 min. The reaction was terminated by the addition of a 3% phosphoric acid solution (5 μL). The reaction product (10 μL) was spotted onto a P30 filtermat and washed for 5 minutes in phosphoric acid (75 mM). The wash sequence was repeated two more times, followed with one final wash in methanol. The plates were then dried, sealed and read on the TopCount scintillation counter after adding 30 μL scintillation fluid.
The Lyn inhibition values were derived according to the procedure described in Example 164 and are shown as percent in Table 3 at a test concentration of 2 μM. For those compounds with an IC50, the IC50 value in μM is shown in parentheses. For compounds with multiple test values, each value represents a separate assay result.

For a further test, the target named is T4, HER-2 (Homo sapiens, UniProt P04626).
T4 construct: His6 with thrombin site (N); purchased Proqinase (Freiburg, Germany)
As to the kind of experiment: HER-2 Kinase Assay. To be noted: for IC50: value in parentheses; for inhibition at 1 µM: test concentration of 1 μM. Put shortly: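 Read-out was scintillation counting of 33P incorporated into biotinylated polyGluTyr captured on streptavidin plates. Reactions ran 1 h at 30 °C with GST-fused HER-2 residues 679–1255, 1 μM ATP, Mn2+ and Mg2+ at pH 7.5; data given as percent inhibition at 1 μM, with IC50 where determined.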

A value given as a limit tells only on which side of the number the result lay.

T2 sequence (P12931 whole entry): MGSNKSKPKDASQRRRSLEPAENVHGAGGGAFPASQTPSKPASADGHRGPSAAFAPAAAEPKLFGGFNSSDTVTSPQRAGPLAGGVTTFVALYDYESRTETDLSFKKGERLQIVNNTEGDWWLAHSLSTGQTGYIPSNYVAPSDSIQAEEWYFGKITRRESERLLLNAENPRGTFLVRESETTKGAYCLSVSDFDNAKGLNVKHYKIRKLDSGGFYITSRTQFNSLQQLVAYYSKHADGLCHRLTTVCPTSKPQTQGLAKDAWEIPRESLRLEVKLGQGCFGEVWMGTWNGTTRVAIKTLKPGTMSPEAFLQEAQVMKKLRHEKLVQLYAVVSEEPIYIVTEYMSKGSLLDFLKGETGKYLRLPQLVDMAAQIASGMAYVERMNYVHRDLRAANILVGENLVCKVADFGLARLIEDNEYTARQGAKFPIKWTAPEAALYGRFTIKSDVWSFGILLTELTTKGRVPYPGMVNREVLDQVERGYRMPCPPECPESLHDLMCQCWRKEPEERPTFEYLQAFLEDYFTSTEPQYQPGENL
T3 sequence (P07948 whole entry): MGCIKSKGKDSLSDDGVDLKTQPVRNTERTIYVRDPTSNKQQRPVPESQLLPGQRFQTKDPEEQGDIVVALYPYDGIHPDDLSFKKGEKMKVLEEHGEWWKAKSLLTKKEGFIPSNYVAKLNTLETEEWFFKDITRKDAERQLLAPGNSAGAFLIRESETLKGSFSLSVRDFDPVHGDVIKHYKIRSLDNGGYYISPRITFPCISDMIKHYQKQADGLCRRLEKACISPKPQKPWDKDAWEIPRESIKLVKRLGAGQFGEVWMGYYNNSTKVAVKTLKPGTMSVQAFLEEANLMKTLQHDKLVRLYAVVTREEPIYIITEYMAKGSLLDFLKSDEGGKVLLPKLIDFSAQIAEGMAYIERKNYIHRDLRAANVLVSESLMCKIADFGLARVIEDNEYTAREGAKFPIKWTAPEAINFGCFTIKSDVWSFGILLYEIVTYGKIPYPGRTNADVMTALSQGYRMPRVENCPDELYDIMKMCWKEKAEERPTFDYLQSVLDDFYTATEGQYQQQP
T4 sequence (P04626 679-1255): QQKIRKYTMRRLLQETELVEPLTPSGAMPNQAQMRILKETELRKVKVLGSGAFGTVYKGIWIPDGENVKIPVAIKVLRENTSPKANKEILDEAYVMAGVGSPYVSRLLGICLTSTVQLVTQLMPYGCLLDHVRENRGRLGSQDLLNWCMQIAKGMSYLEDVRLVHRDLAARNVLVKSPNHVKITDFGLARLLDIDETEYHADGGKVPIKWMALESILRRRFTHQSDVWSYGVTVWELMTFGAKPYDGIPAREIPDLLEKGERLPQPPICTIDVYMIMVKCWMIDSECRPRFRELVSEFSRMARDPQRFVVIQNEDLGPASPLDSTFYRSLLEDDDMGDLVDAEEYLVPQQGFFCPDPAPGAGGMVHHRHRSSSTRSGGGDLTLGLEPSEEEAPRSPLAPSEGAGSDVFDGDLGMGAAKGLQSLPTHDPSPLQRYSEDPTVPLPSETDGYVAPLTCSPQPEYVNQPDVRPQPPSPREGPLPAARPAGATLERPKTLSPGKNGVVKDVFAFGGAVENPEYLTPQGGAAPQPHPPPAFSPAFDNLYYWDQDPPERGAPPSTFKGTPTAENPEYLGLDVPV
T1 sequence (P00533 669-1210 limits assumed): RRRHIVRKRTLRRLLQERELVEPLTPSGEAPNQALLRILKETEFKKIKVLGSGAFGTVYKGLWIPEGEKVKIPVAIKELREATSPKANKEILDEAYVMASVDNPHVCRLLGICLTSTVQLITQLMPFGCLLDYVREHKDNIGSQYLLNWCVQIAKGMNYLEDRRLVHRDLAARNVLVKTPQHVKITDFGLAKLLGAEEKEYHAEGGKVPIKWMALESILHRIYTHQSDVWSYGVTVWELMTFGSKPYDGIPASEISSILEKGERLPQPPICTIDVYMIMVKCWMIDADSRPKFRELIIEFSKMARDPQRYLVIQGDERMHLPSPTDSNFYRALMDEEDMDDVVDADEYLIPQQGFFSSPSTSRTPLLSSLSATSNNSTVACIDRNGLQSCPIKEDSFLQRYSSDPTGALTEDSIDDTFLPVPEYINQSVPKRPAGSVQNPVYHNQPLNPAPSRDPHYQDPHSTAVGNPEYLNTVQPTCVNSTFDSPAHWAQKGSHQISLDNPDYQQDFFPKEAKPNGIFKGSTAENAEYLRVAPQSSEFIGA

Turning to `O=C(Nc1ccc(CCN2CCCCC2)cc1)c1sc2ncnc3c2c1NC(=O)N3c1ccc(Oc2ccccc2)cc1` [Cpd 166, 4-oxo-5-(4-phenoxy-phenyl)-4,5-dihydro-3H-1-thia-3,5,6,8-tetraaza-acenaphthylene-2-carboxylic acid [4-(2-piperidin-1-yl-ethyl)-phenyl]-amide], the IC50 was 21 nM against EGFR and 171 nM on HER-2. Besides, the inhibition at 2 µM was found to be 22% against c-Src kinase (human) and 51% against Lyn kinase (human).
Molecule `COc1cc(N2C(=O)Nc3c(C(=O)Nc4ccc(CN5CCCCC5)cc4)sc4ncnc2c34)c(Cl)cc1Cl` [Cpd 33, 5-(2,4-dichloro-5-methoxy-phenyl)-4-oxo-4,5-dihydro-3H-1-thia-3,5,6,8-tetraaza-acenaphthylene-2-carboxylic acid (4-piperidin-1-ylmethyl-phenyl)-amide] came in with an IC50 at EGFR of 1890 nM. The inhibition at 2 µM at c-Src kinase (human) is 32%; against Lyn kinase (human), 36%. Besides, on HER-2, the inhibition at 1 µM was 14%.
For the molecule `O=C(Nc1ccc(CN2CCCCC2)cc1)c1sc2ncnc3c2c1NC(=O)N3c1ccc(N2CCOCC2)cc1` [Cpd 124, 5-(4-morpholin-4-yl-phenyl)-4-oxo-4,5-dihydro-3H-1-thia-3,5,6,8-tetraaza-acenaphthylene-2-carboxylic acid (4-piperidin-1-ylmethyl-phenyl)-amide], the inhibition at 2 µM at EGFR was 9%; at c-Src kinase (human), 30%; against Lyn kinase (human), 18%. For the same molecule, the half-inhibitory concentration (IC50) at HER-2 was over 100000 nM.
Take `COc1cc(NC(=O)c2sc3ncnc4c3c2NC(=O)N4c2ccc(Cc3ccccc3)cc2)ccc1OCCN1CCCCC1` [Cpd 163, 5-(4-benzyl-phenyl)-4-oxo-4,5-dihydro-3H-1-thia-3,5,6,8-tetraaza-acenaphthylene-2-carboxylic acid [3-methoxy-4-(2-piperidin-1-yl-ethoxy)-phenyl]-amide]: the results for the concentration for half-maximal inhibition (IC50) against EGFR and at HER-2 were 18 nM and 278 nM, respectively. Moreover, the inhibition at 2 µM at c-Src kinase (human) is 26%; on Lyn kinase (human) it was 55%.
The corresponding values for `O=C(Nc1ccc(CN2CCOCC2)cc1)c1sc2ncnc3c2c1NC(=O)N3c1ccc(Cc2ccccc2)cc1` [Cpd 165, 5-(4-benzyl-phenyl)-4-oxo-4,5-dihydro-3H-1-thia-3,5,6,8-tetraaza-acenaphthylene-2-carboxylic acid (4-morpholin-4-ylmethyl-phenyl)-amide] are 23 nM, 157 nM, 29% and 39%.
As for `O=C(Nc1ccc(CN2CCOCC2)cc1)c1sc2ncnc3c2c1NC(=O)N3c1ccc(-c2ccc(Cl)cc2)cc1` [Cpd 140, 5-(4′-chloro-biphenyl-4-yl)-4-oxo-4,5-dihydro-3H-1-thia-3,5,6,8-tetraaza-acenaphthylene-2-carboxylic acid (4-morpholin-4-ylmethyl-phenyl)-amide], the inhibition at 2 µM was determined as 20% at EGFR, 25% on c-Src kinase (human) and 43% on Lyn kinase (human). The half-inhibitory concentration (IC50) on HER-2 was over 100000 nM.
For the molecule `O=C1Nc2csc3ncnc(c23)N1c1ccc2c(ccn2Cc2cccc(F)c2)c1` [Cpd 152, 5-[1-(3-fluoro-benzyl)-1H-indol-5-yl]-3H,5H-1-thia-3,5,6,8-tetraaza-acenaphthylen-4-one], the IC50 against EGFR turned out to be 333 nM; at HER-2, 3720 nM. For the same molecule, the inhibition at 2 µM at c-Src kinase (human) was -6%; against Lyn kinase (human), 7%.
The like results for `O=C(O)c1sc2ncnc3c2c1NC(=O)N3c1ccc(Oc2ccccc2)cc1` [Cpd 168, 4-oxo-5-(4-phenoxy-phenyl)-4,5-dihydro-3H-1-thia-3,5,6,8-tetraaza-acenaphthylene-2-carboxylic acid] were, in that order, 452 nM, 12200 nM, -21% and 28%.
On to `O=C(O)c1sc2ncnc3c2c1NC(=O)N3c1cc(OCc2cccc(F)c2)c(Cl)cc1Cl` [Cpd 58, 5-[2,4-dichloro-5-(3-fluoro-benzyloxy)-phenyl]-4-oxo-4,5-dihydro-3H-1-thia-3,5,6,8-tetraaza-acenaphthylene-2-carboxylic acid], for which the figures for the inhibition at 2 µM on EGFR, against c-Src kinase (human) and against Lyn kinase (human) were 16%, -48% and 6%, respectively. The inhibition at 1 µM against HER-2 was -27%.
Regarding `COc1ccc(N2C(=O)Nc3c(C(=O)Nc4ccc(OCCN5CCOCC5)c(OC)c4)sc4ncnc2c34)c(F)c1` [Cpd 67, 5-(2-fluoro-4-methoxy-phenyl)-4-oxo-4,5-dihydro-3H-1-thia-3,5,6,8-tetraaza-acenaphthylene-2-carboxylic acid [3-methoxy-4-(2-morpholin-4-yl-ethoxy)-phenyl]-amide], the half-maximal inhibitory concentration (IC50) against EGFR turned out to be 103 nM; at HER-2, 965 nM. Also, the figures for the inhibition at 2 µM against c-Src kinase (human) and on Lyn kinase (human) were -17% and 22.5%, respectively. The inhibition at 1 µM on HER-2 was 51%.
For `COc1ccc(NC(=O)c2sc3ncnc4c3c2NC(=O)N4c2ccc(Br)cc2F)cc1OC` [Cpd 37, 5-(4-bromo-2-fluoro-phenyl)-4-oxo-4,5-dihydro-3H-1-thia-3,5,6,8-tetraaza-acenaphthylene-2-carboxylic acild (3,4-dimethoxy-phenyl)-amide], the concentration for half-maximal inhibition (IC50) against EGFR came to 490 nM. The inhibition at 2 µM on c-Src kinase (human) was 11%; on Lyn kinase (human) it was -13%. Further, the inhibition at 1 µM against HER-2 stood at 1%.
Take `O=C(NCc1ccco1)c1sc2ncnc3c2c1NC(=O)N3c1ccc(N2CCOCC2)cc1` [Cpd 127, 5-(4-morpholin-4-yl-phenyl)-4-oxo-4,5-dihydro-3H-1-thia-3,5,6,8-tetraaza-acenaphthylene-2-carboxylic acid (furan-2-ylmethyl)-amide]: the values for the inhibition at 2 µM at EGFR, against c-Src kinase (human) and on Lyn kinase (human) were 0.5%, -2% and 25%, respectively. For the same molecule, the IC50 on HER-2 was over 100000 nM.
In the case of `O=C(Nc1ccc(CN2CCCCC2)cc1)c1sc2ncnc3c2c1NC(=O)N3c1ccc(Oc2cccc(F)c2)cc1` [Cpd 131, 5-[4-(3-fluoro-phenoxy)-phenyl]-4-oxo-4,5-dihydro-3H-1-thia-3,5,6,8-tetraaza-acenaphthylene-2-carboxylic acid (4-piperidin-1-ylmethyl-phenyl)-amide], the values for the IC50 on EGFR and on HER-2 were 10 nM and 84 nM, respectively. The inhibition at 2 µM was determined as 36% against c-Src kinase (human) and 41% against Lyn kinase (human). The inhibition at 1 µM against HER-2 was 91%.
Take `COc1ccc(N2C(=O)Nc3c(C(=O)Nc4ccc(CN5CCCCC5)cc4)sc4ncnc2c34)cc1Cl` [Cpd 121, 5-(3-chloro-4-methoxy-phenyl)-4-oxo-4,5-dihydro-3H-1-thia-3,5,6,8-tetraaza-acenaphthylene-2-carboxylic acid (4-piperidin-1-ylmethyl-phenyl)-amide]: the IC50 came to 344 nM against EGFR and 3520 nM at HER-2. In addition, the inhibition at 2 µM is -1% against c-Src kinase (human) and -13% at Lyn kinase (human).
Consider `O=C(Nc1ccc(N2CCOCC2)cc1)c1sc2ncnc3c2c1NC(=O)N3c1ccc(N2CCOCC2)cc1` [Cpd 125, 5-(4-morpholin-4-yl-phenyl)-4-oxo-4,5-dihydro-3H-1-thia-3,5,6,8-tetraaza-acenaphthylene-2-carboxylic acid (4-morpholin-4-yl-phenyl)-amide], for which the inhibition at 2 µM came to 20% at EGFR, 5% against c-Src kinase (human) and 21% on Lyn kinase (human). The IC50 at HER-2 was over 100000 nM.

The record behind these values is patent US7579356B2, “Thia-tetraazaacenaphthylene kinase inhibitors” (Janssen Pharmaceutica NV, priority 2005, dated 2009).
